Results taken from patent publication US10758522B2, “Small molecule analogs of the nemo binding peptide” (THE SCRIPPS RESEARCH INSTITUTE, priority 2015, dated 2020).

Assays:
IKKβ-NEMO interaction = test: Immunoprecipitation of NEMO and IKKβ immunoblot in Raw 264.7 macrophages and HEK293 cells; type: cell-based; settings: Raw 264.7 macrophages / HEK293; mimetics 100 μM, 8K-NBD 400 μM
Procedure: The NBD mimetics reduce the interaction between IKKg (NEMO) and IKKß. The indicated concentrations of the drugs were added to HEK 293 or Raw 264.7 cells and cell extracts prepared 30 minutes later. Following immunoprecipitation (IP) of NEMO, the Western was probed for IKKß.
After treatment with the mimetics or NBD peptide, NEMO was immunoprecipitated by an anti-NEMO antibody and IKKβ was immunoblotted to determine the binding of IKKβ to NEMO.
HEK293 or Raw264.7 cells were seeded at 1×10^6 cells/well in 6-well plates and treated with vehicle, small molecule or NBD peptide for indicated time. Cells were lysed in NP-40 lysis buffer supplemented with 1× protease inhibitor cocktails (sigma). Protein was immunoprecipitated by incubating 150 μg of lysate with 1 μg of anti-NEMO antibody (Santa Cruz) on a rotating shaker at 4° C. for 4 hrs, followed by incubation with 20 ul of Protein A agarose beads (ThermoFisher) for 1 hr. Beads were washed in NP40 buffer 3 times and PBS once. Protein was then denatured in SDS-sample buffer and resolved by MINI-PROTEAN TGX 4-15% SDS-PAGE. Anti-IKKβ (1:1000 CST) was used to assess binding of IKKβ to NEMO and anti-NEMO (1:1000 CST) or IgG were used to as a loading control.

[1] = target: T1, IKK complex (IKKß, IKKα and NEMO) (Homo sapiens, UniProt Q9Y6K9); test: Co-immunoprecipitation of NEMO with IKKß in 293 cells; type: cell-based; settings: Zinc-5 at 4 hours, Zinc-13 at 1 hour, NBD peptide at 4 hours
T1 construct: analyzed by Western blot for the level of co-precipitated NEMO; endogenous in cells; host or cells: 293 (HEK293) cells
Source text: FIG. 8 is a bar graph showing the inhibition of TNFα by NBDA-1 (Zinc-13). […] In addition, we have examined the ability of the compounds to disrupt the IKK complex, comprised of IKKß, IKKα and NEMO.
A non-functional, related compound Zinc-7 had no effect.

[2] = test system: K14-Cre; Ercc1−/flox mice; test: Topical treatment of skin aging in K14-Cre; Ercc1−/flox mice; type: in vivo, mouse; settings: daily
Procedure: To test the ability of NBDA-1 to function in vivo, the drug was tested in several models of aging. In FIG. 12, the ability of topical treatment of NBDA-1 to reduce signs of skin aging is shown. Areas on the back of normal mice or mice with enhanced skin aging (K14-Cre; Ercc1^−/flox) were shaved and then treated daily with drugs or control creams.

mdx mice = test: Chronic treatment of mdx mice (Duchenne muscular dystrophy model); type: in vivo, mouse; settings: ip 3 times/week for 4 weeks
Source text: Mdx mice develop normally at birth, and then undergo a massive myonecrosis starting at three weeks. Treatment of mdx mice with IKK/NF-kB inhibitors effectively reduces inflammation, block necrosis and increase muscle regeneration. Mdx mice were chronically treated with vehicle, SR12343, SR12460 or 8K-NBD starting from day 21, 3 times/week for 4 weeks. […] To determine if SR12343 and SR12460 improve muscle pathology, tibialis anterior (TA) muscle was stained with hematoxylin and eosin (H&E) to assess inflammatory infiltration, necrosis, central nucleation and fibrosis. […] Fiber size in centrally nucleated and non-centrally nucleated myofibers was also smaller in mice treated with SR12343 and 8K-NBD, indicating active reconstruction of myofiber during the regenerative phase.
To determine muscle strength post-treatment, grip strength test on forelimbs was performed 2 weeks and 4 weeks post-treatment.
HEK293 cells were grown in Dulbecco's Modification of Eagles Medium (with 4.5 g/L glucose and L-glutamine), supplemented with 10% fetal bovine serum, penicillin and streptomycin. Raw264.7 cells were cultured in RPMI-1640 media containing 10% heat-inactivated fetal bovine serum, penicillin and streptomycin. C57BL/10ScSn-Dmd^mdx/J and female C57BL/6 mice were purchased from the Jackson Laboratory. Mice were housed in the animal facilities of Scripps Fla. under constant temperature and humidity. Animal protocols used in this study were approved by Scripps Fla. Institutional Animal Care and Use Committees. Three week-old sex-matched mdx mice were dosed with SR12343 (30 mg/kg), […] (30 mg/kg), 8K-NBD peptide (10 mg/kg) or vehicle by intraperitoneal (i.p.) injection 3 times per week for 4 weeks. Mice were sacrificed at 7 weeks of age by carbon dioxide inhalation and tibialis anterior was collected for histological analysis.
Seven week-old treated or untreated mdx mice were measured for forelimb grip strength using a digital grip strength meter paired with a metal grid (Bioseb). Mice were allowed to grip the metal grid tightly and readings were obtained by gently pulling the tail backward until release. Five sequential measurements were performed and the average force was calculated.
Tissues fixed in 10% neutral buffered formalin (NBF) overnight were imbedded in paraffin. Tissue was sectioned at […] using a microtome. H&E staining was conducted following a standard protocol (REF).

NF-κB target genes = test: qRT-PCR of NF-κB target genes in LPS-stimulated Raw 264.7 cells; type: cell-based, mouse; settings: Raw 264.7, LPS
Procedure: Effect of the NBD mimetics on expression of NF-kB regulated genes in the Raw mouse macrophage cell line. Treatment of the Raw cells with the indicated drugs prior to addition of LPS reduced NF-kB-mediated gene expression as measured by RT-PCR.
To determine whether the inhibitory effect of the mimetics is TNF-α-dependent, LPS-mediated NF-κB activation via TLR4 was examined to determine a broader inhibitory effect of the novel NBD mimetics. NF-κB was stimulated in Raw 264.7 by 1 ug/ml of LPS for 2 hr and genes transcriptionally regulated by NF-κB were determined by qRT-PCR analysis. Both an IKK active site inhibitor IKKi VII (2 μM) and the 8K-NBD peptide (400 μM) were included as positive controls and the expression of COX2, IL-6, IL-1β, TNF-α, IκBα and iNOS were assessed.
Raw 264.7 cells were treated with a 50 μM solution of the SR compound for 30 minutes, and then the mRNA was harvested 2 hours after addition of 1 μg/mL LPS.
Snap frozen tissues were preserved in RNAlater RNA stabilization solution (ThermoFisher) before processed. Total RNA was extracted from cells or tissues using TRIZOL reagent (Life Technologies) and 1500 ng of messenger RNA (mRNA) was subjected to synthesize complementary DNA (cDNA) using SuperScript VILO cDNA synthesis kit. qRT-PCR was performed in a StepOnePlus Real-Time PCR system using Platinum SYBR Green qPCR SuperMix-UDG (ThermoFisher). Target gene expression was calculated using the comparative CT method (ΔΔCT) and normalized to an internal control gene Actb (β-actin). Primers used are as follows: Ptgs2 (COX-2) forward: […]; Ptgs2 (COX-2) reverse: […]; Nfkbia (IκBα) forward: […]; Nfkbia (IκBα) reverse: […]; Il1b (IL-1β) forward: […]; Il1b (IL-1β) reverse: […]; Nos2 (iNOS) forward: […]; Nos2 (iNOS) reverse: […]; Tnf (TNF) forward: […]; Tnf (TNF) reverse: […]; Il6 (IL-6) forward: […]; Il6 (IL-6) reverse: […]. Actb (β-actin) forward: […]; Actb (β-actin) reverse: […];

Ercc1−/Δ mice = test: Systemic treatment of Ercc1−/Δ mice, intervertebral disc proteoglycan; type: in vivo, mouse; settings: IP 3× a week, 10 mg/kg for 8 weeks
Procedure: The ability of the compounds to work systemically was also tested. In these experiments, Ercc1^−/Δ mice with accelerated aging (lifespan of 5 months) were treated systemically, 3× a week, by IP injection at a dose of 10 mg/kg for 8 weeks. Since we previously had shown that the NF-κB is a key factor in driving intervertebral disc degenerated, we assessed the effects of treatment on proteoglycan synthesis and content in the discus following treatment.

T1 sequence (Q9Y6K9 whole entry, one chain of several): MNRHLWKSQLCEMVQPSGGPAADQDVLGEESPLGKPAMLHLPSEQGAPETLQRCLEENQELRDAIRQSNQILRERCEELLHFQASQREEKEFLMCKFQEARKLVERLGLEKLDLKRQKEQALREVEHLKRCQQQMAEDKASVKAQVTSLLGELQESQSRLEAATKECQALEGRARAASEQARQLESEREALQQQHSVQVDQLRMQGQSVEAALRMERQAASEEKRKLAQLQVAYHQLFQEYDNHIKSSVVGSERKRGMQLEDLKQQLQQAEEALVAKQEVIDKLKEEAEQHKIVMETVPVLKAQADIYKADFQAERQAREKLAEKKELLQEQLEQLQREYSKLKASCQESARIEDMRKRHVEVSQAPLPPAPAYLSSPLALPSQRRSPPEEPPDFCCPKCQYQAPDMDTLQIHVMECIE

8K-NBD peptide: 8K-NBD (KKKKKKKKGGTALDWSWLQTE) peptide, NEMO binding domain peptide with protein transduction domain, control [reference compound]
disruption of IKKβ-NEMO interaction (NEMO IP, IKKβ blot) (IKKβ-NEMO interaction): able to disrupt the protein-protein interaction in macrophages at 400 μM | level of NEMO co-immunoprecipitated with IKKß [1]: reduced the level of co-immunoprecipitated NEMO | epidermal thickness / skin architecture [2]: improved skin architecture and increased epidermal thickness | expression of eMyHC and Pax 7 in TA muscle (qRT-PCR) (mdx mice): increased eMyHC expression, but to a lower extent compared to SR12343 | fiber size in centrally nucleated and non-centrally nucleated myofibers (mdx mice): smaller | tibialis anterior muscle pathology (H&E) (mdx mice; SR compounds 30 mg/kg, 8K-NBD 10 mg/kg): reduced inflammatory cell infiltration and necrosis and also promoted muscle regeneration | iNOS expression (NF-κB target genes): significantly inhibited | proteoglycan synthesis and content in the intervertebral disc (Ercc1−/Δ mice): restored proteoglycan synthesis and content back to levels seen in normal, young mice
